In assay [1] the test system is spontaneously hypertensive rats (SHR). Briefly: Long-term (4 weeks) consumption in SHR, tail-cuff blood pressure. It is filed as in vivo, rat. How it is done: SHR were feed ad libitum with milk fermented by L. lactis NRRL B-50571, L. lactis NRRL B-50572, captopril (40 mg/kg body weight) or purified water for four weeks. […] Additionally, milk fermented by L. lactis strains modified SHR lipid profiles. Milk fermented by L. lactis NRRL B-50571 and B-50572 was able to reduce plasma low-density lipoprotein (LDL) cholesterol by 55.4±3 mg/dL and 66.3±4 mg/dL, respectively. Thus, milk fermented by L. lactis strains may be a coadjuvant in the reduction of hypertension and hyperlipidemia and may be used as a functional food for better cardiovascular health. […] Subsequently, samples were frozen at −20° C. All fermented milk samples were daily unfrozen and homogenized (for 20 minutes before use. Thirty-two male SHR were obtained from Harlan Laboratories, Inc., (Indianapolis, Ill., USA). The rats were randomly housed in pairs per cage at 21±2° C. with 12 h light/dark cycles, 52±6% relative humidity and with ad libitum intake of a standard diet (TEKLAD, Harlan Laboratories, USA) during the experiment. SHR (27-28 weeks old and 355±24 g weight) were divided into four groups of eight rats (n=8): purified water (negative control), captopril (proven hypotensive drug, positive control) (40 mg/kg body weight (BW), milk fermented by L. lactis NRRL B-50571 and milk fermented by L. lactis NRRL 50572. All SHR had free access to each treatment during three weeks as part of the protocol. Half of the animals were sacrificed at the end of that period. The rest of the SHR only received purified water during one more week before being sacrificed. A research animal protocol was followed according to the guidelines established by the institutional (CIAD, A.C.) Ethics Committee. The lowering blood pressure effect of milk fermented by specific L. lactis strains on SHR was monitored through time. […] Systolic (SBP) and diastolic (DBP) blood pressures were measured five times on each conscious animal before treatments and every week during the experiment. […]

The test system is the same in assay [2]. As to the kind of experiment: Single-dose oral administration in SHR, tail cuff blood pressure and heart rate. The class given is in vivo, rat. Conditions: single oral dose 40 mg/kg BW. How it is done: However, the relationship between ACEI and the in vivo action had to be tested. Therefore, the antihypertensive and heart rate (HR) lowering effect of milk fermented by specific L. lactis in a murine model was investigated. Spontaneously hypertensive male rats (SHR) (271±14 g) were randomized into […]: oral administration of milk fermented by L. lactis NRRL B-50571 or L. lactis NRRL B-50572 at 35 or 50 mg protein/kg of body weight (BW). Two more groups were fed with different solutions as controls: a saline solution was the negative control, meanwhile captopril (40 mg/kg BW), a proven ACE inhibitor was the positive control. Blood pressure and heart rate were monitored by the tail cuff method before treatments and 2, 4, 6 and 24 h post oral administration. […] Thus, milk fermented by specific L. lactis strains present potential benefits in the prevention and treatment of cardiovascular diseases associated to hypertension in humans. Samples of specific L. lactis fermented milk (prepared as previously described) for the single dose bioassay were obtained by centrifugation at 20,000×g for 10) min at 0° C. […] SHR were weaned for eight weeks and their systolic blood pressure monitored during this period. […] Systolic blood pressure (SBP), diastolic blood pressure (DBP) as well as heart rate (HR) were monitored before administration and 2, 4, 6 and 24 h post-administration. […]

In the case of `C[C@H](CS)C(=O)N1CCC[C@H]1C(=O)O` [captopril], the SBP reduction in assay [1] (fourth week (only water in last week), fermented milk ad libitum, captopril 40 mg/kg BW) is 28.1±1.8 mm Hg. Also, the “effect on SBP” value in assay [1] (second and third week) is recorded as “marked lowering-effect”. Besides, the DBP reduction in assay [1] (second week, fermented milk ad libitum, captopril 40 mg/kg BW) is recorded as 38.4±8.5 mm Hg; in assay [2] (each measurement (2, 4, 6, 24 h)), “maximum DBP reduction”. Also, the “decrease of SBP” value in assay [2] (6 h, significantly different from the treatments) is “maximum decrease”.
